One assay has as its system healthy volunteers. As to conditions: seven days; cited from earlier work.
The subject of assay [1] is Male B6.VLep ob(-/-) (ob/ob) mice. In words: ob/ob Mouse Model of Type 2 Diabetes. As to conditions: three weeks. The class given is in vivo. The procedure:
Male B6.VLep^ob(−/−) (ob/ob) mice and their lean littermates (Jackson Laboratory, Bar Harbor, Me.) were group housed and allowed free access to food (Purina 5015) and water. Mice were 6-7 weeks old at the start of each study. On day 0, animals were weighed and postprandial glucose levels determined (Medisense Precision-X™ glucometer, Abbott Laboratories). […] Animals were weighed, and postprandial glucose measurements were taken weekly throughout the study. On the last day of the study, 16 hours post dose (unless otherwise noted) the mice were euthanized via CO2, and blood samples (EDTA) were taken by cardiac puncture and immediately placed on ice. Whole blood measurements for HbA1c were taken with hand held meters (A1c NOW, Metrika Inc., Sunnyvale Calif.). Blood samples were then spun and plasma was removed and frozen until further analysis. The plasma triglyceride levels were determined according to instructions by the manufacturer (Infinity kit, Sigma Diagnostics, St. Louis Mo.).

A further assay has as its system Male CD-1 mice. In words: Mouse Dehydrocorticosterone Challenge Model, plasma corticosterone. Type of assay: in vivo. The procedure:
Male CD-1 (18-22 g) mice (Charles River, Madison, Wis.) were group housed and allowed free access to food and water. Mice are brought into a quiet procedure room for acclimation the night before the study. Animals are dosed with vehicle or compound at various times (pretreatment period) before being challenged with 11-dehydrocorticosterone (Steraloids Inc., Newport, R.I.). Thirty minutes after challenge, the mice are euthanized with CO2 and blood samples (EDTA) are obtained by cardiac puncture and immediately placed on ice. Blood samples were then spun, the plasma was removed, and the samples frozen until further analysis was performed. Corticosterone levels were obtained by ELISA (American Laboratory Prod., Co., Windham, N.H.) or HPLC/mass spectroscopy.

The values that follow come from patent US20050245534A1, “Inhibitors of the 11-beta-hydroxysteroid dehydrogenase Type 1 enzyme” (priority 2004, published 2005).

For the molecule `CC1(C)[C@@H](OC(=O)CCC(=O)O)CC[C@]2(C)[C@H]3C(=O)C=C4[C@@H]5C[C@@](C)(C(=O)O)CC[C@]5(C)CC[C@@]4(C)[C@]3(C)CC[C@@H]12` [carbenoxolone], in the assay with healthy volunteers, the “reduction of IOP” value is reported as 17%.
As for `CC(C(=O)NC1C2CC3CC1CC(O)(C3)C2)N1CCN(c2ccc(C(F)(F)F)cn2)CC1` (stereo not shown) [Compound F, N-[(E)-5-hydroxy-2-adamantyl]-2-{4-[5-(trifluoromethyl)pyridin-2-yl]piperazin-1-yl}propanamide], the “% HbA1c” value in assay [1] (30 mpk twice daily) was determined as 7.6 ± 0.6%; in assay [1] (100 mpk twice daily), 6.4 ± 0.5%. Besides, the Glucose in assay [1] (30 mpk twice daily) is 295 ± 31 mg/dL; in assay [1] (100 mpk twice daily) it was 263 ± 21 mg/dL. Also, the Triglycerides came out at 255 ± 22 mg/dL in assay [1] (30 mpk twice daily) and 282 ± 36 mg/dL in assay [1] (100 mpk twice daily). In addition, the Plasma corticosterone levels in the assay with Male CD-1 mice (30 mpk followed by 11-DHC, pretreatment period 0.5 hours) is 1297 ± 121; in the assay on Male CD-1 mice (30 mpk followed by 11-DHC, pretreatment period 16 hours), 1402 ± 99; in the assay with Male CD-1 mice (100 mpk followed by 11-DHC, pretreatment period 0.5 hours), 742 ± 119; in the assay on Male CD-1 mice (100 mpk followed by 11-DHC, pretreatment period 16 hours), 1422 ± 129.
`C[C@]12CC(=O)[C@H]3[C@@H](CCC4=CC(=O)CC[C@@]43C)[C@@H]1CC[C@@H]2C(=O)CO` [Example 11-DHC, 11-dehydrocorticosterone, reference compound]: the Plasma corticosterone levels in the assay with Male CD-1 mice (11-DHC challenge without compound, pretreatment period 0.5 hours) was found to be 1478 ± 180; in the assay on Male CD-1 mice (11-DHC challenge without compound, pretreatment period 16 hours), 1200 ± 86.
